Results taken from publication PMC6010111, “Synthesis, biological evaluation and molecular modeling studies on novel quinonoid inhibitors of CDC25 phosphatases” (Journal of Enzyme Inhibition and Medicinal Chemistry, 2016).

Experiments:
Assay type in all cases: biochemical
[1] = biological target: T1, human CDC25A (recombinant GST-CDC25) (Homo sapiens, UniProt P30304); experiment: CDC25A dephosphorylation assay with 3-O-methylfluorescein phosphate (fluorimetric); settings: for IC50: mean of triplicates ± SD; for remaining activity at 100 µM: 100 µM compound, DMSO control = 100%, read-out: residual activity of CDC25A
T1 construct: made in house; host or cells: Escherichia coli BL21-DE3 pLys S
T1 sequence (P30304 1-524): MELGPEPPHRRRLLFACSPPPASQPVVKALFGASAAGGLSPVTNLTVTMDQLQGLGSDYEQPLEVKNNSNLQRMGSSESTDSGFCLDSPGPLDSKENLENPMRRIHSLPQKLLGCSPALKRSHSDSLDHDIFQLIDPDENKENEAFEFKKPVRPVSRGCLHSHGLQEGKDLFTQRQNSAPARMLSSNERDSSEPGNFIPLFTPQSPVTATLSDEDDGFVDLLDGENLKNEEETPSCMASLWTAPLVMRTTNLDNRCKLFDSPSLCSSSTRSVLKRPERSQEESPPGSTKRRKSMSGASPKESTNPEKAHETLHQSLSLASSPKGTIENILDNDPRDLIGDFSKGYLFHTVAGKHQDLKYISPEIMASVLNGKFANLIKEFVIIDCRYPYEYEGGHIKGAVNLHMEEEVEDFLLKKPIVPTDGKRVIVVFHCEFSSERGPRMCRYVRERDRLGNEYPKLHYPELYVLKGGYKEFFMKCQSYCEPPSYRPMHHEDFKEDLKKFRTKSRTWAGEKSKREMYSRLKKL
Text: (§1) Human glutathione-S-transferase (GST)-Cdc25 recombinant enzymes were used to evaluate the inhibitory potential of compounds.
(§2) Recombinant human GST-CDC25 proteins were produced as previously described by Brault et al.[25] Briefly, the GST-tagged Cdc25s were expressed in the bacterial expression system Escherichia coli BL21-DE3 pLys S, transformed by a plasmidic vector (pGEX 2T) containing the sequences encoding full length CDC25. Production of recombinant proteins was induced via an IPTG induction system. Then, cells were lysed and centrifuged to recover the supernatant which was purified with a GSH-agarose column system, and recombinant GST-CDC25 proteins were eluted and collected in fractions. Activity, purity and protein concentration of the fractions were evaluated.
(§3) CDC25 enzymatic activity was measured by a dephosphorylation assay with 3-O methyl fluorescein phosphate as described. Briefly, the assay was performed in 96-well plates in buffer [50 mM Tris–HCl, 50 mM NaCl, 1 mM EDTA and 0.1% SAB, pH 8.1], 3-O-methylfluorescein phosphate was used as substrate. After 2 h at 30 °C, 3-O-methylfluorescein fluorescent emission was measured with a CytoFluor system (Perspective Applied Biosystems, Villebon-sur-Yvette, France; excitation filter: 475 nm; emission filter: 510 nm).
(§4) Assays were performed in triplicate, and the experiment was independently performed three times. The results are expressed as percentage of inhibition of CDC25 phosphatase activity in presence of the tested compounds (and compared to DMSO control). All compounds were tested at a 100 µM concentration. Naphtoquinone (20 µM) was used as positive reference inhibitor.
(§5) IC50 values for CDC25 inhibition were evaluated by in vitro fluorimetric assays and were determined with sigmoid curves plotted by using a non-linear approximation model based on the least square method (GraphPad Prism software, La Jolla, CA).

[2] = biological target: T2, human CDC25C (recombinant GST-CDC25) (Homo sapiens, UniProt P30307); experiment: CDC25C dephosphorylation assay with 3-O-methylfluorescein phosphate (fluorimetric); settings: for remaining activity at 100 µM: 100 µM compound, DMSO control = 100%, read-out: residual activity of CDC25C; for IC50: mean of triplicates ± SD
T2 construct: made in house; host or cells: Escherichia coli BL21-DE3 pLys S
T2 sequence (P30307 1-473): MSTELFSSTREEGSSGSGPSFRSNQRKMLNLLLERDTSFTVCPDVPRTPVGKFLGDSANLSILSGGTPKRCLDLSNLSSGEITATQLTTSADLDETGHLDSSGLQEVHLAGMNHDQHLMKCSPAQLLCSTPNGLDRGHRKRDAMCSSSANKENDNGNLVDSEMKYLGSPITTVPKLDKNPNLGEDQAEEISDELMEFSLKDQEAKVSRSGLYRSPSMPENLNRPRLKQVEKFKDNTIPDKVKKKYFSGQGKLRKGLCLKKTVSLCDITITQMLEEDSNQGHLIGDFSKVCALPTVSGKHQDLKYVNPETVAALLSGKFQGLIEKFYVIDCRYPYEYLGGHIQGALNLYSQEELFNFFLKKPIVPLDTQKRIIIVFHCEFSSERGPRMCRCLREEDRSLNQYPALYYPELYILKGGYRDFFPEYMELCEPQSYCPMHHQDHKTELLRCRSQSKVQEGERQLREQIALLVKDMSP
Text: as §1, §2, §3, §4, §5

[3] = biological target: T3, human CDC25B (recombinant GST-CDC25) (Homo sapiens, UniProt P30305); experiment: CDC25B dephosphorylation assay with 3-O-methylfluorescein phosphate (fluorimetric); settings: for remaining activity at 100 µM: 100 µM compound, DMSO control = 100%, read-out: residual activity of CDC25B; for IC50 / IC50 CDC25B: mean of triplicates ± SD
T3 construct: made in house; host or cells: Escherichia coli BL21-DE3 pLys S
T3 sequence (P30305 1-580): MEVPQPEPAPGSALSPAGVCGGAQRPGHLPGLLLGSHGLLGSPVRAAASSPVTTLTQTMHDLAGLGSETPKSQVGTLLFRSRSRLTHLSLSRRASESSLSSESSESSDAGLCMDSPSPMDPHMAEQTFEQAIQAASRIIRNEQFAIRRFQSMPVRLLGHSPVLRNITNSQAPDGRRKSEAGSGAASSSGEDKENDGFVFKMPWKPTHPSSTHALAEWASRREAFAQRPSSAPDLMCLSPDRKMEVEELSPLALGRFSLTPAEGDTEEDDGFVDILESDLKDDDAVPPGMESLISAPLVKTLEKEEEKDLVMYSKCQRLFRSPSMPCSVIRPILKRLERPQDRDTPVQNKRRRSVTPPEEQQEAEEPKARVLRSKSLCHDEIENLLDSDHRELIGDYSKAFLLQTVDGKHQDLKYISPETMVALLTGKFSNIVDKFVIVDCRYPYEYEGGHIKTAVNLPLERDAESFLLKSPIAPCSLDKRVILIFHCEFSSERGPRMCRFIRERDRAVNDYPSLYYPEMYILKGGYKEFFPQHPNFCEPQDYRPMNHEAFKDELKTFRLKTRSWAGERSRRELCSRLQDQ
Text: as §1, §2, §3, §4, §5

Structure (SMILES)	IC50 [1]	remaining activity at 100 µM [2]	remaining activity at 100 µM [1]	remaining activity at 100 µM [3]	IC50 [2]	IC50 [3]	IC50 CDC25B [3]
COC1=CC(=O)C=C([S@@+]([O-])c2ccc(C)cc2)C1=O [Compound 1]	2.64 ± 0.62 µM	–	–	–	–	–	–
COCC1=CC(=O)C(C)=C([S@@+]([O-])c2ccc(C)cc2)C1=O [Compound 2]	–	> 10%	> 10%	> 10%	–	–	–
CCOC1=CC(=O)C(C)=C([S@@+]([O-])c2ccc(C)cc2)C1=O [Compound 3]	3.19 ± 1.02 µM	–	–	–	5.41 ± 0.52 µM	11.1 ± 1.01 µM	double digit micromolar
COC1=CC(=O)[C@]2(C)CC=C3CO[C@@H](c4ccoc4)CC3[C@]2([S@@+]([O-])c2ccc(C)cc2)C1=O (stereo partly drawn) [Compound 4]	3.73 ± 1.53 µM	–	–	–	9.43 ± 1.25 µM	18.2 ± 1.68 µM	double digit micromolar
COC1=CC(=O)[C@]2(C)CC=C3CO[C@@H](c4ccccc4)CC3[C@]2([S@@+]([O-])c2ccc(C)cc2)C1=O (stereo partly drawn) [Compound 5]	2.53 ± 0.23 µM	–	–	–	5.76 ± 0.42 µM	7.46 ± 2.17 µM	–
COC1=CC(=O)[C@]2(C)CC=C3CO[C@@H](c4ccccc4)CC3C2C1=O (stereo partly drawn) [Compound 6]	–	> 10%	> 10%	> 10%	–	–	–
COC1=CC(=O)[C@]2(C)CC=C3CO[C@@H](c4ccoc4)CC3C2[C@H]1O (stereo partly drawn) [Compound 7]	–	> 10%	> 10%	> 10%	–	–	–
